Measurements: US8602215B2, “Methods for reducing the risk of an adverse dronedarone/beta-blockers interaction in a patient suffering from atrial fibrillation” (Sanofi, priority 2010, dated 2013)
Where a name gives a salt, the structure may show the parent alone. Read-outs that look alike come from different tables or passages of the source.

Columns and labels:
[1] = human, in vivo
[2] = system: patients with atrial fibrillation or atrial flutter; assay: ATHENA clinical study, patients with beta-blockers baseline medication; format: in vivo
Experimental: The relative risk (RR) was estimated using Cox's […] regression model.
The relative risk (RR) is the ratio of the rates of occurrence of a hospitalization or of a death among the patients on dronedarone, relative to the patients on placebo.
The percentage reduction x of a given event (hospitalization, death, cardiovascular death, etc.) is calculated in the following way: x=1−relative risk. Results Relating to the Prevention of Cardiovascular Hospitalization or Death

[3] = system: healthy male caucasian subjects; assay: Metoprolol/dronedarone interaction study: pharmacodynamics, myocardial contractility (Example 1); format: in vivo, human (healthy male caucasian subjects); conditions: dronedarone 800 mg BID added on top of metoprolol 200 mg OD; p=0.0002
Experimental: (§1) All treatments were administered in fed conditions.
The pharmacodynamic analyses were based on the change in Day 5 and Day 13 measurements, using a one-way analysis of variance (ANOVA) model with term for dose, for both primary and secondary endpoints; estimates and 95% confidence intervals (CI) of the difference in mean CHGDay13-5 between dronedarone dose groups and the placebo group were derived within the ANOVA framework. As the sample size calculation was based on the comparison of the highest dronedarone dose versus placebo, pairwise comparison were performed without adjustment of the overall treatment first type error rate. Safety evaluation was based upon a review of individual values and descriptive statistics (listings, summary tables, graphics).

CYP2D6 = target: T1, CYP2D6 (Homo sapiens, UniProt P10635); assay: CYP2D6 inhibition in vivo, from metoprolol interaction (Example 1); parameters: species or system human (CYP2D6 extensive metabolizer subjects); conditions: dronedarone 400 mg BID, metoprolol 200 mg OD as substrate
T1 construct: endogenous in cells; host or cells: healthy human volunteers in vivo (endogenous enzyme, CYP2D6 extensive metabolizers)
Experimental: as §1
The interaction ratio is lower than the existing 3-(Cmax) to 6-fold (AUC) difference in metoprolol exposure between poor and extensive CYP2D6 metabolizers.

healthy male subjects = assay: Propranolol/dronedarone interaction study: pharmacodynamics, electrocardiogram and vital signs at rest and during sub-maximal exercise (Example 2); format: in vivo, human (healthy male subjects)
Experimental: as §1
Pharmacodynamics: Resting vital signs were summarized by the synthetic parameter AUC0-8 and analyzed for “treatment effects and chronological (“time”) effects using repeated measures analysis of variance. Exercise vital signs were analyzed in a similar manner; the electrocardiogram exercise data were not formally analyzed and presented using descriptive statistics.

clinical = conditions: male, human, in vivo
[4] = Metoprolol/dronedarone interaction study: plasma pharmacokinetics of metoprolol (Example 1); conditions: dronedarone 400 mg BID + metoprolol 200 mg OD; CYP2D6 extensive metabolizer subjects
[5] = human, in vivo; remark: listed apart in the source
[6] = existing difference, quoted for comparison; cited from earlier work
[7] = 1628 patients with beta-blockers baseline medication, placebo 673 of 1641
[8] = versus placebo, Cox model, beta-blockers baseline medication
[9] = versus placebo, beta-blockers baseline medication

T1 sequence (P10635 whole entry): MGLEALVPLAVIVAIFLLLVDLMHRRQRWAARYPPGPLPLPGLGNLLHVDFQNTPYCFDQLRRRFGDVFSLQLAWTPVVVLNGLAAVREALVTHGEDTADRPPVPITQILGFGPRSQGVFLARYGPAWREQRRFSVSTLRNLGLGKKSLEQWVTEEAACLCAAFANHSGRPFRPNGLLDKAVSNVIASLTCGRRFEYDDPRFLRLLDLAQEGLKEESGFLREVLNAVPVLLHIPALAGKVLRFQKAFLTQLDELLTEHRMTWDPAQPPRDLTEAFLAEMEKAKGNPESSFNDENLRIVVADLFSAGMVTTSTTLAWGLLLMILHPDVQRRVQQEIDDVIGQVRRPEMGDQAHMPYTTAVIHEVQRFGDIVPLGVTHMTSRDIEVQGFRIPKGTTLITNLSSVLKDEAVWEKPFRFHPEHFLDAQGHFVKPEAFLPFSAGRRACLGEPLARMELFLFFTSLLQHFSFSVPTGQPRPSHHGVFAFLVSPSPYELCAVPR

With `CCCCNCCCOc1ccc(C(=O)c2c(CCCC)oc3ccc(NS(C)(=O)=O)cc23)cc1` [SR35021] the AUC0-24 [1] was 768.6 (278.4) ng · h/ml, the Cmax [1] was 85.9 (28.8) ng/ml and the tmax [1] was 5.13 (0.72) h.

For `CCCCc1oc2ccc(NS(C)(=O)=O)cc2c1C(=O)c1ccc(OCCCN(CCCC)CCCC)cc1` [dronedarone hydrochloride], the “death due to stroke, events reported” value ([2]; 1628 patients with beta-blockers baseline medication, placebo 11 of 1641) was 10 events, the “sudden cardiac death, events reported” value ([2]; 1628 patients with beta-blockers baseline medication, placebo 25 of 1641) was 9 events and the “hospitalization for congestive heart failure (CHF), events reported” value ([2]; 1628 patients with beta-blockers baseline medication, placebo 96 of 1641) was 85 events. The “cardiovascular hospitalization or death, events reported” value [2, 7] was 553 events, the “death, events reported” value [2, 7] was 553 events and the “relative risk of cardiovascular hospitalization or death” value [2, 8] was 0.777. The “relative risk of death” value [2, 8] was 0.777, the “relative risk of death due to stroke” value [2, 8] was 0.909 and the “relative risk of hospitalization for CHF” value [2, 8] was 0.888. For the same compound, the “relative risk of sudden cardiac death” value [2, 8] was 0.362, the “decrease of CHF” value [2, 9] was 12% and the “decrease of cardiovascular hospitalization or death” value [2, 9] was 23%. The decrease of death [2, 9] was 23%, the “decrease of death due to stroke” value [2, 9] was 10% and the “decrease of sudden cardiac death” value [2, 9] was 64%.

With `CCCCc1oc2ccc(NS(C)(=O)=O)cc2c1C(=O)c1ccc(OCCCN(CCCC)CCCC)cc1` [dronedarone, 2-n-Butyl-3-[4-(3-di-n-butylaminopropoxy)benzoyl]-5-methylsulphonamidobenzofuran] the “reduction in Vcfmean (myocardial contractility)” value [3] was -0.28 s⁻¹, the “inhibition of CYP2D6 in vivo” value (CYP2D6) was “weak inhibitor” and the “Resting diastolic blood pressure, change” value (healthy male subjects; single dose) was −3%. The “Resting heart rate, change” value (healthy male subjects; single dose) was 2%, the “Resting systolic blood pressure, change” value (healthy male subjects; single dose) was −5% and the “diastolic blood pressure during sub-maximal exercise, change from baseline” value (healthy male subjects; single dose) was −2%. The “heart rate during sub-maximal exercise, change from baseline” value (healthy male subjects; single dose) was −3%, the “systolic blood pressure during sub-maximal exercise, change from baseline” value (healthy male subjects; single dose) was −2% and the “PQ interval, change from baseline” value (healthy male subjects; single oral administration) was “increase”. The “T-wave amplitude, change from baseline” value (healthy male subjects; single oral administration) was “increase”, the risk of bradycardia ([2]; patients using both dronedarone and beta-blockers except sotalol) was “no clinically significant increase” and the “increase of steady-state propranolol (80 mg OD) exposure” value ([1]; male, 7 days) was 1.2-1.3 fold. It also gave an AUC(0-t) (clinical; AUC0-24) of 0.983 µg·h/mL, a Cmax (clinical; Cmax) of 0.141 µg/mL and a tmax (clinical; tmax) of 3.63 h. The “effect on alpha hydroxymetoprolol exposures” value [4] was “without significant effect”.

In the case of `COCCc1ccc(OCC(O)CNC(C)C)cc1` (stereo not shown) [metoprolol], the “metoprolol Cmax and AUC0-24h after 8 days of treatment” value [5] is reported as “significantly higher”, the AUC0-24 ([5]; male) is reported as 1541 (1563) ng · h/mL and the “AUC0-24 ratio estimate (day 13/day 5) and 90% CI” value ([5]; male) is reported as 1.29 [1.08-1.55]. The Cmax ([5]; male) was 100.6 (86.4) ng/mL, the “Cmax ratio estimate (day 13/day 5) and 90% CI” value ([5]; male) was 1.34 [1.08-1.66] and the “increase in AUC0-24” value ([5]; male) was 1.6 fold. For the same compound, the “increase in Cmax” value ([5]; male) was 1.8 fold, the tmax ([5]; male) was 4.0 h and the “difference in metoprolol exposure (AUC) between poor and extensive CYP2D6 metabolizers” value [6] was 6 fold. The “difference in metoprolol exposure (Cmax) between poor and extensive CYP2D6 metabolizers” value [6] was 3 fold.

In the case of `CC(C)NCC(O)COc1cccc2ccccc12` (stereo not shown) [propranolol], the “magnitude of the PR prolongation” value (healthy male subjects; after repeated administration, p<0.001) is reported as 3.9%, the “magnitude of the T-wave increase” value (healthy male subjects; after repeated administration, p=0.001) is reported as 28.3% and the “reduction of HR” value (healthy male subjects; at steady state) is reported as −8.9%. For the same compound, the “mean change from baseline in QT” value (healthy male subjects; based on AUC0-8 h, at steady state) was 3.6%, the “mean change from baseline in QTc” value (healthy male subjects; based on AUC0-8 h, at steady state, p<0.001) was −1.9% and the “QT interval, change from baseline (resting electrocardiogram)” value (healthy male subjects; repeated daily dosing) was 4%. The “QTc interval, change from baseline (resting electrocardiogram)” value (healthy male subjects; repeated daily dosing) was −2%, the “T-wave amplitude, change from baseline (resting electrocardiogram)” value (healthy male subjects; repeated daily dosing) was 28% and the “PQ interval, change from baseline (resting electrocardiogram)” value (healthy male subjects; repeated once daily dosing) was 4%. The “Resting electrocardiogram heart rate, change compared to baseline” value (healthy male subjects; repeated once daily dosing) was −9%, the “Resting diastolic blood pressure, change” value (healthy male subjects; repeated oral administration) was −10% and the “Resting heart rate, change” value (healthy male subjects; repeated oral administration) was −8%. The “Resting systolic blood pressure, change” value (healthy male subjects; repeated oral administration) was −5%, the “diastolic blood pressure during sub-maximal exercise, change from baseline” value (healthy male subjects; repeated oral administration) was −2% and the “heart rate during sub-maximal exercise, change from baseline” value (healthy male subjects; repeated oral administration) was −16%. The “systolic blood pressure during sub-maximal exercise, change from baseline” value (healthy male subjects; repeated oral administration) was −12%, the “Resting diastolic blood pressure, change” value (healthy male subjects; single dose) was −4% and the “Resting heart rate, change” value (healthy male subjects; single dose) was −10%. For the same compound, the “Resting systolic blood pressure, change” value (healthy male subjects; single dose) was −3%, the “diastolic blood pressure during sub-maximal exercise, change from baseline” value (healthy male subjects; single dose) was 2% and the “heart rate during sub-maximal exercise, change from baseline” value (healthy male subjects; single dose) was −17%. For the same compound, the “systolic blood pressure during sub-maximal exercise, change from baseline” value (healthy male subjects; single dose) was −13%, the AUC0-12 [1] was 318.75 (178.62) ng · h/ml and the AUClast [1] was 360.85 (210.30) ng · h/ml. For the same compound, the Cmax [1] was 59.79 (33.77) ng/ml and the tmax [1] was 2.19 (0.66) h.
